Test results reported in patent US20220249457A1, “METHOD OF MODULATING RIBONUCLEOTIDE REDUCTASE” (CASE WESTERN RESERVE UNIVERSITY, priority 2019, published 2022).

tested on: normal mobilized peripheral blood progenitor cells; assay: not given; settings: previously characterized; cited from earlier work

| SMILES | cytotoxicity |
| --- | --- |
| O=C(NN=Cc1c(O)ccc2ccccc12)c1ccccc1O [NSAAH, Naphthyl Salicyl Acyl Hydrazone] | little measurable cytotoxicity |

biological target: T1, hRRM1 hexamers (Homo sapiens, UniProt P23921); assay: not given; settings: cited from earlier work
T1 sequence (P23921 1-792): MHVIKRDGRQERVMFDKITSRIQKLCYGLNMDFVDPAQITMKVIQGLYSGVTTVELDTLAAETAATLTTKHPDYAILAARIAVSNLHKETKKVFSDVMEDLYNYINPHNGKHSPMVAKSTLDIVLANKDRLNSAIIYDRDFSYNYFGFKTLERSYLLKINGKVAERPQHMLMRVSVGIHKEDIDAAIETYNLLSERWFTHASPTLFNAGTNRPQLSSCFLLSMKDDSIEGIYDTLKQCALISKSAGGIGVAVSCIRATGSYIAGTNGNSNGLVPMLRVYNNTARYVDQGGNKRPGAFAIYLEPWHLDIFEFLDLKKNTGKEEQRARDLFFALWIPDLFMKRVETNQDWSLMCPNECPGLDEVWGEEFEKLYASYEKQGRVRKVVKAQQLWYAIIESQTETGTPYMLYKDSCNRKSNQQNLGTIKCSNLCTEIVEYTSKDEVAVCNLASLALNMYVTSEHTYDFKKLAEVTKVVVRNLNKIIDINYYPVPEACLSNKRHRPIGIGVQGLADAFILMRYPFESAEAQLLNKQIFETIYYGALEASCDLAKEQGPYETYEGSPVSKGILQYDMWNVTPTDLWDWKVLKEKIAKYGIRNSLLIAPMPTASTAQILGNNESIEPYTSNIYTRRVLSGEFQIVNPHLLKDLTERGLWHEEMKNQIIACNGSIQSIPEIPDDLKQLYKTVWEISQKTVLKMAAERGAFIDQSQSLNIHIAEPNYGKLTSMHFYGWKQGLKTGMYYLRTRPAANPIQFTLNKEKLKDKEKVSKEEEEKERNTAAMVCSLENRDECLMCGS

| SMILES | binding affinity |
| --- | --- |
| Nc1nc(Cl)nc2c1ncn2[C@@H]1O[C@H](CO)[C@@H](O)[C@@H]1F [clofarabine, 2′-fluro-2′-deoxyarabinofuranosyl-2-chloroadenine] | nanomolar affinity |

biological target: T2, hRRM1 (Homo sapiens, UniProt P23921); assay: hRRM1 enzyme activity inhibition (RR radioactivity assay, boronate chromatography); type: biochemical; set-up: key: Compounds which are found to have extremely high potency are classified as “****”; Compounds which are found to have very high potency of protein synthesis are classified as “***”; settings: potency ranking by minimum concentration required to inhibit enzyme activity; six concentrations 1-100 μM incubated with hRRM1 30 minutes, diluted by a factor of 5
T2 construct: made in house; host or cells: E. coli BL21 DE3 (RIL)
T2 sequence (P23921 1-792): T1 sequence (P23921 1-792)
Description: Activity measurements in Table 2 is performed as described below. Briefly, six concentrations of the compounds ranging from 1-100 μM of the compounds are incubated on ice with 2.5 μmol of hRRM1 for 30 minutes. The assay sample was then diluted by a factor of 5, and enzyme activity was assayed in triplicate. […] Activity measurements are based on the qualitative relation between the minimum concentration of compound required to produce inhibit enzyme activity. Potency activities are ranked as either extremely high, very high or significant. These activities are used to determine the activity ranking. Compounds which are found to have extremely high potency are classified as “****” Compounds which are found to have very high potency […] are classified as “***”. Compounds which are found to have significant potency are classified as
In assay buffer, six concentrations of the compounds ranging from 1-100 μM of the compounds are incubated on ice with 2.5 μmol of hRRM1 for 30 minutes. The assay sample was then diluted by a factor of 5, and enzyme activity was assayed in triplicate.
The IC50 are determined using, boronate chromatography. Six concentrations of the RRmod are studied ranging from 1-100 μM. The assay is repeated in triplicate. Data are fitted in GraphPad Prism 6.05 using a sigmoidal dose-response curve.

| Activity | SMILES |
| --- | --- |
| *** | Oc1ccccc1-c1nnn(-c2ccccc2O)n1 |
| *** | Oc1ccccc1-c1c[nH]c(-c2ccccc2O)n1 |
| *** | COc1ccc(Br)c(-c2nnc(-c3ccccc3O)o2)c1O |
| *** | Oc1ccccc1-c1nnc(-c2ccccc2O)o1 |
| *** | COc1ccccc1-c1noc(-c2ccccc2O)n1 |
| *** | Oc1ccccc1-c1cnc(-c2ccccc2O)s1 |
| **** | Oc1ccccc1-c1nc(-c2ccccc2Br)no1 |
| *** | Oc1ccccc1-c1cn(-c2ccccc2O)nn1 |
| **** | COc1ccccc1-c1nc(-c2ccccc2O)no1 |
| *** | Oc1ccccc1-c1nnc(-c2cc(-c3ccccc3)ccc2O)o1 |
| *** | COc1ccc(-c2ccccc2)c(-c2nnc(-c3ccccc3O)o2)c1O |
| *** | COc1ccc(-c2ccsc2)c(-c2nnc(-c3ccccc3O)o2)c1O |

More lines, now with the values behind:

| SMILES | Activity |
| --- | --- |
| Oc1ccccc1-c1noc(-c2cccnc2)n1 | **** |
| Oc1ccc(Br)cc1-c1nnc(-c2cccnc2)o1 | *** |
| Oc1ccccc1-c1nc(-c2ccccc2-c2ccsc2)no1 | *** |
| COc1ccc(-c2cnc(-c3ccccc3O)s2)cc1 | *** |
| c1cncc(-c2noc(-c3cccnc3)n2)c1 | **** |
| Oc1ccccc1-c1noc(-c2cccs2)n1 | *** |
| Oc1ccccc1-c1nc(-c2ccccc2OCc2ccccc2)no1 | *** |
| c1cncc(-c2noc(-c3cccs3)n2)c1 | *** |
| Oc1ccccc1-c1nc(-c2ccccc2-c2ccccc2)no1 | *** |
| Oc1ccccc1-c1nc(-c2cccnc2)no1 | **** |
| c1cncc(-c2noc(-c3ccco3)n2)c1 | *** |
| c1cncc(-c2noc(-c3cnc4ccccc4c3)n2)c1 | *** |
